In US20040122001A1, “Pharmaceutical compounds” (priority 2000, published 2004):

Row | melting point [°C] | SMILES
1 | 121 to 125 | CNC(=O)c1ccc2c(c1)CCCN2CCN1CC=C(c2c[nH]c3cc(F)ccc23)CC1
2 | 130 to 133 | NC(=O)c1ccc2c(c1)CCCN2CCN1CC=C(c2c[nH]c3cc(F)ccc23)CC1
3 | 184 to 185.6 | Fc1ccc2c(C3=CCN(CCC4OCCc5cc(Br)ccc54)CC3)c[nH]c2c1 (stereo not shown)
4 | 136 to 140 | O=C(NCCO)c1ccc2c(c1)CCCN2CCN1CC=C(c2c[nH]c3cc(F)ccc23)CC1
